Read-outs that look alike come from different tables or passages of the source.
Tests used:
[1] = test system: phospho-ERK in ST88 cells; assay: phospho-ERK ELISA in ST88 cells; type: cell-based
Source text: (§1) The ST88 cell line (NF1^+/−) contains elevated levels of Ras-GTP and is often used as a pre-clinical model for NF1. […] Pathway inhibition and anti-proliferative activity of RAF265 in ST88 cells.

ST88 cells [2] = assay: Proliferation of ST88 cells; type: cell-based
Source text: as §1

[3] = test system: VEGF-induced angiogenesis in Matrigel plug; assay: VEGF-CHO Matrigel plug angiogenesis model in mice (hemoglobin, Drabkin's reagent); type: in vivo; details: treated days 1 and 4, plugs excised day 5
Source text: Due to the inhibition of VEGFR-2, RAF265 also has anti-angiogenic activity which may also provide a therapeutic benefit in treating neurofibromas. To confirm that RAF265 inhibits the growth of new blood vessels (i.e., angiogenesis) in vivo, mice were implanted with Matrigel® containing Chinese hamster ovary cells (CHO) overexpressing VEGF and then treated mice with a dose range of RAF265 or a vehicle control (days 1 and 4). In this model, VEGF expressed from the CHO cells induces angiogenesis within the Matrigel® plug. Plugs are excised on day 5 and assayed for hemoglobin using Drabkin's reagent, as a measure of the degree of angiogenesis.

[4] = test system: phospho-MEK in ST88 cells; assay: phospho-MEK ELISA in ST88 cells; type: cell-based
Source text: as §1

NF90 cells = NF90 cells (NF1+/−); cited from earlier work
ST88 cells [5] = details: ST88 cells (NF1+/−); cited from earlier work

SMILES	levels of phospho-ERK after treatment (in words) ([1]; ST88 cells)	EC50 ([1]; ST88 cells (NF1+/−))	effect on proliferation (in words) (ST88 cells [2]; ST88 cells)	EC50 (ST88 cells [2]; ST88 cells (NF1+/−))	dose giving maximal suppression of hemoglobin content [3]	hemoglobin content of Matrigel plug (in words) [3]	levels of phospho-MEK after treatment (in words) ([4]; ST88 cells)	EC50 ([4]; ST88 cells (NF1+/−))	effect on proliferation (in words) (NF90 cells)	levels of phospho-ERK (in words) (NF90 cells)	effect on proliferation (in words) (ST88 cells [5])	levels of phospho-ERK (in words) (ST88 cells [5])
Cn1c(Nc2ccc(C(F)(F)F)cc2)nc2cc(Oc3ccnc(-c4ncc(C(F)(F)F)[nH]4)c3)ccc21 [Example 1]	decreased levels	185 nM	inhibition of proliferation	207 nM	50 mg/kg	dose-dependent decrease	decreased levels	150 nM				
O=C(NOCC1CC1)c1ccc(F)c(F)c1Nc1ccc(I)cc1Cl [CI-1040]									inhibited proliferation	decreased levels of phospho-ERK	inhibited proliferation	decreased levels of phospho-ERK
